Literature values as cited in patent US20190154648A1, “METHODS OF ATTENUATING DRUG EXCIPIENT CROSS REACTIVITY” (Chesapeake Therapeutics, LLC, priority 2016, published 2019).
Where a name gives a salt, the structure may show the parent alone.

How the values were obtained:
[1] = in vivo
[2] = system: nonhuman primates

SMILES: OCCOCCN1CCN(C2=Nc3ccccc3Sc3ccccc32)CC1 [quetiapine fumarate]
- single-dose toxicity [1]: low
- mechanistically unexplainable side effects in repeat-dose toxicity studies [2]: pigmentation of the thyroid, transient increases in heart rate, posterior triangular cataracts, and reduced lymphocyte count
